# Where two headings read alike, the source gives them in different places.
# Columns and labels:
# [1] = solubility in water; type: physicochemical
# [2] = target: T1, D2 receptors (Rattus norvegicus, UniProt P61169); assay: displacement of 3H-spiperone, ligand of D2 receptors, in vitro on rat striatum preparations; type: binding; settings: read-out: inhibiting concentration (50), I.C. 50, relative to 3H-spiperone
# T1 construct: in vitro tests on rat striatum preparations; from tissue; host or cells: rat striatum preparations
# From the text: (§1) These tests which consisted of studying the displacement of specific ligands of dopamine receptors by compounds of the invention. The compound in Example I was found, for instance, to have an inhibiting concentration (50), I.C.
# [3] = system: D1 receptors; assay: displacement of 3H-piflutixol, ligand of D1 receptors, in vitro on rat striatum preparations; type: binding
# From the text: as §1
# [4] = system: prolactin; assay: prolactin content in serum after subcutaneous administration in the male rat; type: in vivo
# Protocol: The blood samples had been taken 10 and 30 minutes after administration of the compound, whereas the same dose of a reference antidopaminergic (Sulpiride) studied under the same conditions, multiplies the amount of basic prolactinaemia by a factor of about 10.
# [5] = system: reserpine-induced motor depression and ptosis; assay: reserpine model of behavioural depression; type: in vivo, mice or rats
# Protocol: In view of this activating property of the compounds of the invention, animal models of behavioural depression were used to investigate a possible antidepressive effect. For example, mice pre-treated with reserpine (5 mg/kg) intraperitoneally 18 hours before the test, or rats receiving reserpine in the nucleus accumbens 1 μg/24 h) were tested.
# [6] = acute toxicity in mice; settings: mouse, in vivo
# Protocol: In the course of this pharmacological research a toxicological study of the most preferred compound was carried out.
# T1 sequence (P61169 whole entry): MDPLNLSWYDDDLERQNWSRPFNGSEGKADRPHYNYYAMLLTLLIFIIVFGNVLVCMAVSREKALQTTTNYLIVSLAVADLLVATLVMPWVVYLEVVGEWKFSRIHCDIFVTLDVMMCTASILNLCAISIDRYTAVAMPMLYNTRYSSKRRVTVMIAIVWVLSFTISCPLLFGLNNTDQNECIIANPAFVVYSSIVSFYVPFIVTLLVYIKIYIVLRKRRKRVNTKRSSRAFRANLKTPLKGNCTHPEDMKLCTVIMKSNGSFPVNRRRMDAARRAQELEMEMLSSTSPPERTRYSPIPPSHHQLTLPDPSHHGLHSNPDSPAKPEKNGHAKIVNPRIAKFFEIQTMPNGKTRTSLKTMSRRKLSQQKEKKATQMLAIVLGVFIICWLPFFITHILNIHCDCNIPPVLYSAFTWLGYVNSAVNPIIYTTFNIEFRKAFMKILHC
smiles,measurement,setting,value
"C=CCOc1cc(NC2=NCCN2)c(Cl)cc1C(=O)NCCN(CC)CC [XXXIII, N-(DIETHYLAMINO ETHYL) 2-ALLYLOXY 4-[(1-H 4,5 DIHYDRO 2-IMIDAZOLYL) AMINO] 5-CHLORO BENZAMIDE]",solubility,"[1]; hydrochloride prepared for immediate use, read-out: soluble in water, hydrochloride",200 mg/mL
same,solubility,"[1]; the product (base), read-out: insoluble in water",10 mg/mL
"COc1cc(NC2=NCCO2)c(Cl)cc1C(=O)NCC1CCCN1CC1CC1 (stereo not shown) [XL, N-(1-CYCLOPROPYLMETHYL 2-PYRROLIDINYLMETHYL) 2-METHOXY 4-[(4,5-DIHYDRO 2-OXAZOLYL) AMINO] 5-CHLORO BENZAMIDE]",solubility,"[1]; monohydrochloride prepared for immediate use, read-out: soluble in water, monohydrochloride",~320 mg/mL
"CCN(CC)CCNC(=O)c1cc(Cl)c(NC2=NCCN2)cc1OC [Example I, N-[(DIETHYL AMINO) ETHYL] 2-METHOXY 4-[(1-H 4,5-DIHYDRO 2-IMIDAZOLYL) AMINO] 5-CHLORO BENZAMIDE]",IC50,[2],> 100 µM
same,displacement of 3H-piflutixol,[3],no displacement
same,increase in prolactin content in serum,"[4]; 1 mg/kg s.c., eight rats, 10 and 30 minutes after administration",no increase in prolactin content
same,activity compared with imipramine against reserpine,[5]; 0.1 mg/kg s.c. versus imipramine 30 mg/kg i.p.,as active at that dose as 30 mg/kg of imipramine
same,effect on reserpine-induced motor depression and ptosis,"[5]; 0.1 mg/kg s.c., reserpine 5 mg/kg i.p. (mice) or in nucleus accumbens 1 μg/24 h (rats)",counteracts motor depression and ptosis
same,LD50,"[6]; ip, read-out: LD 50 i.p.",37.7 to 40.8 mg/kg
same,LD50,"[6]; iv, read-out: LD 50 i.v.",12.8 to 14.4 mg/kg
same,LD50,"[6]; po, per os, read-out: LD 50 per os",165 to 180 mg/kg
same,LD50,"[6]; sc, read-out: LD 50 s.c.",52 to 54 mg/kg
"CCN1CCCC1CNC(=O)c1cc(S(N)(=O)=O)ccc1OC (stereo not shown) [Sulpiride, reference compound]",factor by which the amount of basic prolactinaemia is multiplied,[4]; same dose (1 mg/kg) and same conditions,about 10

# Reference: patent US4835172A, “Novel benzamides, intermediates and process for the preparation and therapeutic use thereof” (Societe D'Etudes Scientifiques et Industrielles de …, priority 1985, dated 1989)
